Test results taken from patent US20250177285A1, “BANANA STEM SAP COMPOSITIONS AND METHODS OF USE THEREOF” (Tano Pharmaceuticals Inc., priority 2023, published 2025).
Marks after values point to notes of the source that are not given here. Each block holds one molecule with its values, some of them ahead of it. Residues, ends and D or L forms follow the SMILES beside them.

What was measured:
[1] = test system: Clostridium collagenase IV (a generic metalloproteinase); assay: Metalloproteinase (collagenase) activity assay, Enzchek kit, quenched fluorescent gelatin; type: biochemical
Protocol: (§1) Test Materials. Test materials (Table 8) were stored at +4° C. and were diluted in distilled sterile water immediately before testing. All experimental conditions were tested in biological triplicates.
Metalloproteinase activity assay. The activity of the test materials towards collagenase proteolytic activity was examined by adding dilutions of test articles to the Enzchek kit reaction mixture (Molecular Probes/Invitrogen/ThermoFisher). Clostridium collagenase IV (a generic metalloproteinase) was used as the protease and quenched fluorescent gelatin was the substrate. Phenanthroline, a potent collagenase inhibitor was used as positive control at 1000 μM. The kinetics of the release of the digested, fluorescent gelatin were measured at excitation/emission wavelengths of 485/530 nm with the SpectraMax i3x microplate reader. Fluorescence readings were adjusted by subtracting the values in wells containing no collagenase and were expressed in arbitrary fluorescence units and as % of water-treated controls.
(§2) Statistical analysis. Statistical significance threshold was established as minimum 20% modulation and p value <0.05 as determined by two-tailed Student test.

elastase = target: T1, elastase (Sus scrofa, UniProt P00772); assay: Elastase activity assay; type: biochemical, human
T1 construct: purchased Promega V1891
T1 sequence (P00772 27-266): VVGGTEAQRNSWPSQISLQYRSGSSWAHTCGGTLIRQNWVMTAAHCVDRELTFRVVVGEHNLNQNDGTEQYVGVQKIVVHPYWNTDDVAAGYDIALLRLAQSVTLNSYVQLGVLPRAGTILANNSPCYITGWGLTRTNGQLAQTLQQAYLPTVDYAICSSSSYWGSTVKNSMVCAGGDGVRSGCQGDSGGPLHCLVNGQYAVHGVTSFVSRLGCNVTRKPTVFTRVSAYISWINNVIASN
Protocol: as §1
Elastase activity assay. The reaction was initiated by adding 10 μl of 20 μg/ml elastase enzyme (Promega, cat. #V1891, lot #409147) to the assay mixture [10 mM Tris-HCl pH 7.5+/−0.5, 1 mg/ml elastase substrate VIII (Suc-Ala-Ala-Ala-pNA)] containing different experimental conditions, and the reaction kinetics were monitored at room temperature by measuring absorbance at 405 nm in the SpectraMax i3x microplate reader. Sterile distilled water was the negative, and EI III (Calbiochem cat. #324745) was the positive control. […]. Colorimetric readings were adjusted by subtracting the absorbance in wells containing the same experimental conditions but without elastase and were expressed as % of water control.
as §2

[2] = test system: type I collagen output by normal human neonatal dermal fibroblasts; assay: Type I collagen output, sandwich ELISA of conditioned medium; type: cell-based; conditions: for effect on type I collagen (in words): tested range
Protocol: (§3) Test materials. Test materials (Table 2) were stored at +4° C. and were diluted in distilled sterile water immediately before testing. Cells & experimental procedures. Normal dermal human neonatal dermal fibroblasts (ScienCell; […] The next day (Day 1), test materials, reference substances [MAP (100 μg/ml), MAP (50 μg/ml) and niacinamide (400 μg/ml, 250 μg/ml and 80 μg/ml, based on PMC7950568 and PMC8622652)] and negative control (H2O) were added, and cell culture was pursued for three additional days, afterward the cell culture conditioned medium was used for type I & IV collagen quantification, while cells were formalin-fixed and type III collagen was measured by direct ELISA. The effect of the test articles on cell numbers was determined using the sulforhodamine B method (Table 3). MAP: magnesium ascorbyl phosphate. All colorimetric measurements were acquired using multi-mode SpectraMax i3x platform (Molecular Devices, San Jose CA) assisted with SoftMax 7.0.3. PRO. 21 software. […] [table]

[3] = test system: type III collagen output by normal human neonatal dermal fibroblasts; assay: Type III collagen, direct ELISA on formalin-fixed cells; type: cell-based; conditions: for effect on type III collagen (in words): tested range
Protocol: as §3

[4] = test system: type IV collagen output by normal human neonatal dermal fibroblasts; assay: Type IV collagen output, ELISA of conditioned medium; type: cell-based; conditions: for effect on type IV collagen (in words): tested range
Protocol: as §3

[5] = test system: normal human neonatal dermal fibroblasts; assay: Cell numbers, sulforhodamine B method; type: cell-based
Protocol: as §3

Structure (SMILES): c1cnc2c(c1)ccc1cccnc12 [Phenanthroline]
MP activity (% CTR) ([1]; positive control at 1000 μM, t = 20 min): 0* % CTR | inhibitory effect on collagenase (MP) / generic metalloproteinase activity (in words) ([1]; tested range): total inhibitory activity

Elastase activity (% Control) (elastase; 1 ug/mL, t = 20 min): 9*** % Control | suppressive effect on elastase activity (in words) (elastase; tested range): nearly complete inhibitory activity
Structure (SMILES): COC(=O)CCC(=O)N[C@@H](C)C(=O)N[C@@H](C)C(=O)N1CCC[C@H]1C(=O)N[C@H](C(=O)CCl)C(C)C [El III] (HELM PEPTIDE1{[COC(=O)CCC(=O)[*:2]].A.A.P.V.[ClC[*:1]]}$$$$V2.0)

Structure (SMILES): NC(=O)c1cccnc1 [niacinamide]
Type I collagen (% Control) ([2]; 80 ug/mL): 94 % Control | Type I collagen (% Control) ([2]; 250 ug/mL): 130 % Control | Type I collagen (% Control) ([2]; 400 ug/mL): 130 % Control | type I collagen increase / upregulation (description summary) ([2]; concentration not given): up to 130% | effect on type I collagen (in words) [2]: upregulated type I collagen at the two highest tested concentrations | Type III collagen (% Control) ([3]; 80 ug/mL): 106 % Control | Type III collagen (% Control) ([3]; 250 ug/mL): 106 % Control | Type III collagen (% Control) ([3]; 400 ug/mL): 111 % Control | effect on type III collagen (in words) [3]: no effect | Type IV collagen (% Control) ([4]; 80 ug/mL): 88 % Control | Type IV collagen (% Control) ([4]; 250 ug/mL): 86 % Control | Type IV collagen (% Control) ([4]; 400 ug/mL): 104 % Control | effect on type IV collagen (in words) [4]: no effect | Cell Numbers (% Control) ([5]; 80 ug/mL): 99 % Control | Cell Numbers (% Control) ([5]; 250 ug/mL): 99 % Control | Cell Numbers (% Control) ([5]; 400 ug/mL): 96 % Control

Structure (SMILES): O=C1O[C@H]([C@@H](O)CO)C([O-])=C1OP(=O)([O-])[O-].O=C1O[C@H]([C@@H](O)CO)C([O-])=C1OP(=O)([O-])[O-].[Mg+2].[Mg+2].[Mg+2] [MAP, magnesium ascorbyl phosphate]
Type I collagen (% Control) ([2]; 50 ug/mL): 148 % Control | Type I collagen (% Control) ([2]; 100 ug/mL): 166 % Control | effect on type I collagen (in words) [2]: strong stimulatory response | Type III collagen (% Control) ([3]; 50 ug/mL): 1977 % Control | Type III collagen (% Control) ([3]; 100 ug/mL): 1874 % Control | effect on type III collagen (in words) [3]: strong stimulatory response | Type IV collagen (% Control) ([4]; 50 ug/mL): 694 % Control | Type IV collagen (% Control) ([4]; 100 ug/mL): 703 % Control | effect on type IV collagen (in words) [4]: strong stimulatory response | Cell Numbers (% Control) ([5]; 50 ug/mL): 130 % Control | Cell Numbers (% Control) ([5]; 100 ug/mL): 139 % Control
